{
  "source": "paper PMC9950143",
  "about": "(Scientific Reports, 2023)",
  "key": {"[1]": {"tested_on": "Human coronavirus 229E (HCoV-229E)", "test": "microbe, parasite or virus in culture", "assay_type": "cell-based"}, "[2]": {"tested_on": "Dengue 2 virus (New Guinea C)", "test": "NanoLuc reporter virus infection assay, Huh-7", "assay_type": "cell-based", "details": "Dengue 2 virus (New Guinea C) [Huh-7]"}, "Dengue 3 virus (VN32)": {"tested_on": "Dengue 3 virus (VN32)", "test": "microbe, parasite or virus in culture", "assay_type": "cell-based", "details": "Dengue 3 virus (VN32) [Huh-7]"}, "Dengue 3 virus (H87)": {"tested_on": "Dengue 3 virus (H87)", "test": "microbe, parasite or virus in culture", "assay_type": "cell-based"}, "Zika virus (Dakar)": {"tested_on": "Zika virus (Dakar)", "test": "NanoLuc reporter virus infection assay, Huh-7", "assay_type": "cell-based", "details": "Zika virus (Dakar) [Huh-7]"}, "Zika virus (MR766)": {"tested_on": "Zika virus (MR766)", "test": "microbe, parasite or virus in culture", "assay_type": "cell-based"}, "Yellow fever virus (17D)": {"tested_on": "Yellow fever virus (17D)", "test": "microbe, parasite or virus in culture", "assay_type": "cell-based"}, "[3]": {"tested_on": "Japanese encephalitis (14–14-2)", "test": "microbe, parasite or virus in culture", "assay_type": "cell-based", "details": "Japanese encephalitis (14–14-2) [Huh-7]"}, "West Nile (NY99)": {"tested_on": "West Nile (NY99)", "test": "microbe, parasite or virus in culture", "assay_type": "cell-based, West Nile virus"}, "Bundibugyo virus": {"tested_on": "Bundibugyo virus", "test": "microbe, parasite or virus in culture", "assay_type": "cell-based"}, "Sudan virus (Yambio)": {"tested_on": "Sudan virus (Yambio)", "test": "microbe, parasite or virus in culture", "assay_type": "cell-based"}, "Marburg virus (Ci67) [4]": {"tested_on": "Marburg virus (Ci67)", "test": "microbe, parasite or virus in culture", "assay_type": "cell-based"}, "Marburg (Nganda)": {"tested_on": "Marburg (Nganda)", "test": "microbe, parasite or virus in culture", "assay_type": "cell-based, Marburg virus"}, "HCV GT1b replicon": {"tested_on": "HCV GT1b replicon", "test": "HCV subgenomic replicon Renilla luciferase assay, Huh-7-lunet", "assay_type": "cell-based, hepatitis C virus", "details": "Hepatitis C (1b) [Huh-7-lunet]"}, "HCV GT2a replicon": {"tested_on": "HCV GT2a replicon", "test": "HCV subgenomic replicon Renilla luciferase assay, Huh-7-lunet", "assay_type": "cell-based, hepatitis C virus", "details": "Hepatitis C (2a) [Huh-7-lunet]"}, "[5]": {"tested_on": "hepatitis B virus (HBV; AD38 strain)", "test": "Anti-HBV assay (HBsAg), HepG2-NTCP cells", "assay_type": "cell-based", "details": "HepG2 or PHH cells"}, "[6]": {"tested_on": "hepatitis B virus (HBV; AD38 strain)", "test": "microbe, parasite or virus in culture", "assay_type": "cell-based", "details": "Hepatocyte, read-out: Antiviral activity EC50"}, "[7]": {"tested_on": "rhinoviruses of serotypes A and B", "test": "CPE assay, H1 HeLa cells (summary over rhinoviruses)", "assay_type": "cell-based", "details": "Enterovirus, read-out: EC50 range against rhinoviruses of serotypes A and B"}, "DENV": {"tested_on": "DENV", "test": "microbe, parasite or virus in culture", "assay_type": "cell-based", "details": "Dengue virus, Huh-7, read-out: EC50 range against DENV"}, "[8]": {"tested_on": "all MARV and Ravn virus (RAVV) isolates tested", "test": "microbe, parasite or virus in culture", "assay_type": "cell-based, Marburg virus", "details": "Filoviridae, HeLa, read-out: EC50 values against all MARV and RAVV isolates tested"}, "SUDV Boniface": {"tested_on": "SUDV Boniface", "assay_type": "cell-based, Sudan virus", "details": "read-out: RDV EC50"}, "Huh-7 cells": {"tested_on": "Huh-7 cells", "details": "human"}, "OC43": {"tested_on": "OC43", "details": "different cells and/or assay protocols, read-out: Previously reported activity EC50; cited from earlier work"}, "Enterovirus 68D": {"tested_on": "Enterovirus 68D", "details": "listed as Enterovirus 68D; different cells and/or assay protocols; read-out: Previously reported activity EC50; cited from earlier work"}, "Marburg virus (Ci67) [9]": {"tested_on": "Marburg virus (Ci67)", "details": "read-out: Previously reported activity EC50; cited from earlier work"}, "in vitro": {"test": "in vitro", "details": "human"}, "[10]": {"test": "Cytotoxicity by nuclei count in HDV assay", "details": "human, Huh7-NTCP cells (HDV assay)"}, "[11]": {"test": "Compound cytotoxicity by MTS dye reduction", "details": "human, RD cells"}, "[12]": {"test": "Compound cytotoxicity by MTS dye reduction", "details": "human, H1 HeLa cells"}, "H1 HeLa cells": {"tested_on": "H1 HeLa cells", "test": "Compound cytotoxicity by MTS dye reduction", "details": "H1 HeLa"}, "[13]": {"test": "Compound cytotoxicity by MTS dye reduction", "details": "dog, MDCK cells"}, "MDCK cells": {"tested_on": "MDCK cells", "test": "Compound cytotoxicity by MTS dye reduction", "details": "MDCK; listed as Influenza B (B/Brisbane/60/2008)"}, "[14]": {"test": "Cell toxicity, CellTiter-Glo, in HBV assay", "details": "human, PHH cells (HBV assay)"}, "[15]": {"test": "Cytotoxicity, CellTiter-Glo, 72 h (OC43 protocol)", "details": "human, Huh-7 cells"}, "[16]": {"test": "Cytotoxicity, CellTiter-Glo, 96 h (229E protocol)", "details": "human, H1 HeLa cells"}, "[17]": {"details": "n = 1, read-out: Antiviral activity EC50"}, "[18]": {"details": "Filoviridae, HeLa, read-out: Antiviral activity EC50"}},
  "note": "Where two headings read alike, the source gives them in different places.",
  "data": [
    {"smiles": "CCC(CC)COC(=O)[C@H](C)N[P@](=O)(OC[C@H]1O[C@@](C#N)(c2ccc3c(N)ncnn23)[C@H](O)[C@@H]1O)Oc1ccccc1", "note": "[RDV, Remdesivir]", "values": [
      {"measurement": "Selectivity index (SI) = CC50/EC50", "setting": "[1]", "result": "> 538"},
      {"measurement": "EC50", "setting": "[1]; Human coronavirus 229E, H1-HeLa, read-out: Antiviral activity EC50", "result": "0.093 ± 0.053", "unit": "µM"},
      {"measurement": "Selectivity index (SI) = CC50/EC50", "setting": "[2]", "result": 145},
      {"measurement": "EC50", "setting": "[2]; [17]", "result": 0.23, "unit": "µM"},
      {"measurement": "Selectivity index (SI) = CC50/EC50", "setting": "Dengue 3 virus (VN32)", "result": 278},
      {"measurement": "EC50", "setting": "Dengue 3 virus (VN32); [17]", "result": 0.12, "unit": "µM"},
      {"measurement": "Selectivity index (SI) = CC50/EC50", "setting": "Dengue 3 virus (H87)", "result": 196},
      {"measurement": "EC50", "setting": "Dengue 3 virus (H87); Dengue virus, Huh-7, read-out: Antiviral activity EC50", "result": "0.17 ± 0.07", "unit": "µM"},
      {"measurement": "Selectivity index (SI) = CC50/EC50", "setting": "Zika virus (Dakar)", "result": 90},
      {"measurement": "EC50", "setting": "Zika virus (Dakar); [17]", "result": 0.37, "unit": "µM"},
      {"measurement": "Selectivity index (SI) = CC50/EC50", "setting": "Zika virus (MR766)", "result": 29},
      {"measurement": "EC50", "setting": "Zika virus (MR766); Zika virus, Huh-7, read-out: Antiviral activity EC50", "result": "1.15 ± 0.03", "unit": "µM"},
      {"measurement": "Selectivity index (SI) = CC50/EC50", "setting": "Yellow fever virus (17D)", "result": 186},
      {"measurement": "EC50", "setting": "Yellow fever virus (17D); Yellow fever virus, Huh-7, read-out: Antiviral activity EC50", "result": "0.18 ± 0.03", "unit": "µM"},
      {"measurement": "Selectivity index (SI) = CC50/EC50", "setting": "[3]", "result": 98},
      {"measurement": "EC50", "setting": "[3]; Japanese encephalitis virus, n = 1, read-out: Antiviral activity EC50", "result": 0.34, "unit": "µM"},
      {"measurement": "Selectivity index (SI) = CC50/EC50", "setting": "West Nile (NY99)", "result": 668},
      {"measurement": "EC50", "setting": "West Nile (NY99); West Nile virus, Huh-7, n = 1, read-out: Antiviral activity EC50", "result": 0.05, "unit": "µM"},
      {"measurement": "Selectivity index (SI) = CC50/EC50", "setting": "Bundibugyo virus", "result": "> 53"},
      {"measurement": "EC50", "setting": "Bundibugyo virus; Bundibugyo virus, HeLa, read-out: Antiviral activity EC50", "result": "0.19 ± 0.02", "unit": "µM"},
      {"measurement": "Selectivity index (SI) = CC50/EC50", "setting": "Sudan virus (Yambio)", "result": "> 19"},
      {"measurement": "EC50", "setting": "Sudan virus (Yambio); Sudan ebolavirus, HeLa, n = 1, read-out: Antiviral activity EC50", "result": 0.13, "unit": "µM"},
      {"measurement": "Selectivity index (SI) = CC50/EC50", "setting": "Marburg virus (Ci67) [4]", "result": "> 83"},
      {"measurement": "EC50", "setting": "Marburg virus (Ci67) [4]; [18]", "result": "0.03 ± 0.002", "unit": "µM"},
      {"measurement": "Selectivity index (SI) = CC50/EC50", "setting": "Marburg (Nganda)", "result": "> 104"},
      {"measurement": "EC50", "setting": "Marburg (Nganda); [18]", "result": "0.024 ± 0.004", "unit": "µM"},
      {"measurement": "Selectivity index (SI) = CC50/EC50", "setting": "HCV GT1b replicon", "result": "> 225"},
      {"measurement": "EC50", "setting": "HCV GT1b replicon; Hepatitis C virus, GT1B, read-out: Antiviral activity EC50", "result": "0.089 ± 0.047", "unit": "µM"},
      {"measurement": "Selectivity index (SI) = CC50/EC50", "setting": "HCV GT2a replicon", "result": 236},
      {"measurement": "EC50", "setting": "HCV GT2a replicon; Hepatitis C virus, GT2A, read-out: Antiviral activity EC50", "result": "0.072 ± 0.013", "unit": "µM"},
      {"measurement": "selectivity index of RDV against HBV", "setting": "[5]", "result": "~1"},
      {"measurement": "EC50", "setting": "[6]", "result": "> 1", "unit": "µM"},
      {"measurement": "EC50", "setting": "[7]", "result": "0.385 to 0.75", "unit": "µM"},
      {"measurement": "EC50", "setting": "DENV", "result": "0.12 to 0.23", "unit": "µM"},
      {"measurement": "EC50", "setting": "[8]", "result": "0.024 to 0.068", "unit": "µM"},
      {"measurement": "EC50", "setting": "SUDV Boniface", "result": 0.212, "unit": "µM"},
      {"measurement": "concentration at which cytotoxicity was observed", "setting": "Huh-7 cells", "result": "approximately 4 µM"},
      {"measurement": "EC50", "setting": "OC43", "result": "0.096 to 0.15", "unit": "µM"},
      {"measurement": "EC50", "setting": "Enterovirus 68D", "result": "0.1 to 1", "unit": "µM"},
      {"measurement": "EC50", "setting": "Marburg virus (Ci67) [9]", "result": "0.01 to 0.02", "unit": "µM"},
      {"measurement": "CC50 at 48 h", "setting": "in vitro", "result": "> 2.5", "unit": "µM"},
      {"measurement": "CC50", "setting": "in vitro; RDV CC50 (SUDV assay)", "result": "> 2.5", "unit": "µM"},
      {"measurement": "CC50", "setting": "[10]", "result": "8 to 10", "unit": "µM"},
      {"measurement": "CC50", "setting": "[11]; listed as Enterovirus 68D", "result": 2.82, "unit": "µM"},
      {"measurement": "CC50", "setting": "[11]; listed as Enterovirus 71", "result": 3.31, "unit": "µM"},
      {"measurement": "CC50", "setting": "[12]", "result": "> 10", "unit": "µM"},
      {"measurement": "CC50", "setting": "H1 HeLa cells; listed as Rhinovirus 14", "result": "> 10", "unit": "µM"},
      {"measurement": "CC50", "setting": "H1 HeLa cells; listed as Rhinovirus 16", "result": "> 10", "unit": "µM"},
      {"measurement": "CC50", "setting": "[13]", "result": "> 100", "unit": "µM"},
      {"measurement": "CC50", "setting": "MDCK cells", "result": "> 100", "unit": "µM"},
      {"measurement": "CC50", "setting": "[14]", "result": "> 1", "unit": "µM"},
      {"measurement": "CC50 at 72 h", "setting": "[15]", "result": "18.9 ± 1.8", "unit": "µM"},
      {"measurement": "CC50 at 96 h", "setting": "[16]", "result": "> 50", "unit": "µM"}
    ]}
  ]
}
